Reference: publication PMC12844257, “Click Chemistry-Enabled Parallel Synthesis of N-Acyl Sulfonamides and Their Evaluation as Carbonic Anhydrase Inhibitors” (Molecules, 2026)
Several values for one entry are separate records, joined by “and”; a condition that tells them apart may be missing. Identical values can stand only once. Like-named read-outs stand apart in the source and are kept apart here.

Experiments:
[1] = target: T1, hCA-IX (catalytic domain) (Homo sapiens, UniProt Q16790); assay: Thermal shift assay (TSA / differential scanning fluorimetry); format: binding; conditions: for ΔTm, median: at 40 µM compound, n = 4
hCA-II = target: T2, hCA-II (Homo sapiens, UniProt P00918); assay: hCA esterase activity inhibition assay (p-nitrophenyl acetate hydrolysis) with IC50 determination; format: biochemical
T2 construct: recombinant hCA-IX (catalytic domain) and hCA-II (full-length protein); made in house; host or cells: E. coli
Protocol: (§1) The catalytic activity of hCA-II and hCA-IX was monitored through the enzymatic hydrolysis of p-nitrophenyl acetate. […]
(§2) hCA esterase activity inhibition screening assay (with IC50 determination) The protocol was adapted from the work by Wu and co-authors.3 Briefly, the catalytic activity of human hCA-IX (catalytic domain) and hCA-II recombinant proteins was monitored by following the hydrolysis of p-nitrophenyl […]
(§3) prepared in DMSO) as a reference compound, were titrated from 200 µM to 0.01 µM at 3× serial dilutions (10-point […]
(§4) HCl, 200 mM NaCl, pH 7.5), and aliquoted into the assay-ready plates with tested compounds immediately prior to the analysis using an automated multichannel dispenser Multidrop Combi (Thermo Fischer Scientific).
(§5) The products of the hydrolysis reaction are acetate and nitrophenolate, which ionizes to give a bright yellow anion […]
(§6) The compounds were formatted into 384-well plates in the following manner. The first two columns (n = 32 wells) […]
(§7) In between, the tested compounds were placed at the defined dilution step of the 10-points concentration curve, each point of which was a quadruplicate (n = 4 wells). Thus, the […]
(§8) deviation of <0.05, were used for further assessment of each point of inhibition curves; they were not shown in the […]
(§9) performed with Labcyte Echo liquid handler to prepare assay-ready plates. Reaction was run in 25 µL of assay buffer […]
(§10) Enzymatic reactions were initiated by pipetting 5 mM stock solution of 4-nitrophenyl acetate (4-NPA) in ethanol to each well (final concentration in the reaction mixture – 0.5 mM for hCA-II and 0.9 mM for hCA-IX). The final reaction volume was 27.5 µL. The enzyme activity was evaluated by monitoring the production of colored product, 4- […]
(§11) SpectraMax M5 (Molecular Devices). The assay was performed twice for each enzyme.
(§12) Each data point of the titration curve was calculated as average of aggregate data value of four measurements per each concentration (technical replicate for each concentration n = 4). The IC50 values were calculated using GraphPad […]
(§13) for maximum inhibition of the enzyme (as described above) and apply this value for further calculation of the percent […]
(§14) Secondly, it was also titrated as one of the tested compounds to ensure that the assay is performing properly withing the given range of the known inhibitor […]
(§15) compounds in Figures S4 and S5.

[2] = target: T1, hCA-IX (catalytic domain); assay: as above; format: biochemical
Protocol: as §1, §2, §3, §4, §5, §6, §7, §8, §9, §10, §11, §12, §13, §14, §15

[3] = target: hCA-II (full-length protein) (Homo sapiens, UniProt P00918); assay: Thermal shift assay (TSA / differential scanning fluorimetry); conditions: for Tm: hCA-II
[4] = 200 nM hCA-II, 0.5 mM 4-NPA, 10-point curve, n = 4, read-out: IC50
[5] = 917 nM hCA-IX, 4-NPA, 10-point curve, n = 4, read-out: IC50
[6] = hCA-II, bound stated, read-out: potency (IC50)
[7] = hCA-IX, bound stated, read-out: potency (IC50)

`Cc1cc(C(=O)NS(=O)(=O)c2cccc(-n3cc(-c4ccc5nonc5c4)nn3)c2)on1` [7{2,21,60}] was tested, and the “ΔTm, median” value [1] was 1.17 °C, the Tm ([1]; screening at 20 µM) was 55.81 °C and the ΔTm ([1]; screening at 20 µM) was 0.18 °C. For the same compound, the Tm ([1]; screening at 40 µM) was 57.23 °C, the IC50 (hCA-II; [4]) was 8.7 µM and 8.74 µM and the IC50 [2, 5] was 17.3 µM. The Tm ([3]; screening at 20 µM) was 55.24 °C, the Tm ([3]; screening at 40 µM) was 55.22 °C and the ΔTm at 20 µM ([3]; read-out: ΔTm) was 0.92 °C. For the same compound, the ΔTm at 40 µM ([3]; read-out: ΔTm) was 0.7 °C.

With `COCC(=O)NS(=O)(=O)c1ccc(-c2cn(CCN(C)Cc3cccc(F)c3)nn2)cc1` [4{16,7,19}] the Tm ([1]; screening at 20 µM) was 56.80 °C, the ΔTm ([1]; screening at 20 µM) was 1.17 °C and the Tm ([1]; screening at 40 µM) was 56.98 °C. The ΔTm ([1]; screening at 40 µM) was 0.92 °C, the IC50 (hCA-II; [4]) was 0.2 µM and the IC50 (hCA-II; [6]) was < 10 µM. The IC50 [2, 5] was 1.1 µM and 1.11 µM, the IC50 [2, 7] was < 10 µM and the Tm ([3]; screening at 20 µM) was 51.10 °C. For the same compound, the Tm ([3]; screening at 40 µM) was 49.58 °C, the ΔTm at 20 µM ([3]; read-out: ΔTm) was -3.22 °C and the ΔTm at 40 µM ([3]; read-out: ΔTm, median) was -4.95 °C.

With `O=C(NS(=O)(=O)c1ccc(-c2cn(CC3COc4ccccc4O3)nn2)cc1)c1cnsc1` (stereo not drawn) [4{17,7,27}] the “ΔTm, median” value [1] was 1.44 °C, the Tm ([1]; screening at 20 µM) was 56.91 °C and the ΔTm ([1]; screening at 20 µM) was 1.28 °C. For the same compound, the Tm ([1]; screening at 40 µM) was 57.51 °C, the IC50 (hCA-II; [4]) was 6.1 µM and 6.07 µM and the IC50 [2, 5] was 23.4 µM. It also gave a Tm ([3]; screening at 20 µM) of 54.82 °C, a Tm ([3]; screening at 40 µM) of 54.73 °C and a ΔTm at 20 µM ([3]; read-out: ΔTm) of 0.5 °C. For the same compound, the ΔTm at 40 µM ([3]; read-out: ΔTm) was 0.21 °C.

For `Cc1cc(C(=O)NS(=O)(=O)c2ccc(-c3cn(CCN(C)Cc4cccc(F)c4)nn3)cc2)ccn1` [4{16,7,28}], the “ΔTm, median” value [1] was 1.18 °C, the Tm ([1]; screening at 20 µM) was 56.77 °C and the ΔTm ([1]; screening at 20 µM) was 1.14 °C. The Tm ([1]; screening at 40 µM) was 57.24 °C, the IC50 (hCA-II; [4]) was 1.7 µM and the IC50 (hCA-II; [6]) was < 10 µM. For the same compound, the IC50 ([2]; 917 nM hCA-IX, 4-NPA, 10-point curve, n = 4, listed as 4(16,7,28), read-out: IC50) was 7.1 µM, the IC50 [2, 5] was 7.13 µM and the IC50 [2, 7] was < 10 µM. The Tm ([3]; screening at 20 µM) was 54.35 °C, the Tm ([3]; screening at 40 µM) was 51.97 °C and the ΔTm at 20 µM ([3]; read-out: ΔTm) was 0.03 °C. For the same compound, the ΔTm at 40 µM ([3]; read-out: ΔTm, median) was -2.55 °C.
